Tests used:
[1] = test system: skin melanoma (SK-MEL-30); assay: MTS metabolic activity assay, SK-MEL-30 cells; assay type: cell-based; details: 72 h; for viability at 10 µM / viability at 20 µM / viability at 50 µM / viability at 100 µM / viability at 200 µM / viability at 300 µM / viability at 500 µM: Homo sapiens, read-out: Cell metabolic activity (MTS), % of untreated control; for viability at 10 µM: SK-MEL-30, 10 µM; for viability at 20 µM: SK-MEL-30, 20 µM; for viability at 50 µM: SK-MEL-30, 50 µM; for viability at 100 µM: SK-MEL-30, 100 µM; for viability at 200 µM: SK-MEL-30, 200 µM; for viability at 300 µM: SK-MEL-30, 300 µM; for viability at 500 µM: SK-MEL-30, 500 µM; for cell viability, decreases to: SK-MEL-30, higher concentrations, range given for the most effective substances together
Method in brief: (§1)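 Dose range applied for 72 h; MTS read-out at 590 and 620 nm, % of control.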

[2] = test system: human colon carcinoma (Caco-2); assay: MTS metabolic activity assay, Caco-2 cells; assay type: cell-based; details: 72 h; for viability at 10 µM / viability at 20 µM / viability at 50 µM / viability at 100 µM / viability at 200 µM / viability at 300 µM / viability at 500 µM: Homo sapiens, read-out: Cell metabolic activity (MTS), % of untreated control; for viability at 10 µM: Caco-2, 10 µM; for viability at 20 µM: Caco-2, 20 µM; for viability at 50 µM: Caco-2, 50 µM; for viability at 100 µM: Caco-2, 100 µM; for viability at 200 µM: Caco-2, 200 µM; for viability at 300 µM: Caco-2, 300 µM; for viability at 500 µM: Caco-2, 500 µM
Method in brief: as §1

[3] = target: T1, 11β-HSD2 (Homo sapiens, UniProt P80365); assay: Inhibition of 11β-HSD2 (cortisol to cortisone, human microsomes, cortisol ELISA); assay type: biochemical; details: 2.5 h, 37 °C
T1 construct: Human liver microsomes were used as a source of 11β-HSD2 enzyme; tissue XenoTech Lot No. 1710160; host or cells: human kidney microsomes, mixed gender (method text says human liver microsomes)
T1 sequence (P80365 1-405): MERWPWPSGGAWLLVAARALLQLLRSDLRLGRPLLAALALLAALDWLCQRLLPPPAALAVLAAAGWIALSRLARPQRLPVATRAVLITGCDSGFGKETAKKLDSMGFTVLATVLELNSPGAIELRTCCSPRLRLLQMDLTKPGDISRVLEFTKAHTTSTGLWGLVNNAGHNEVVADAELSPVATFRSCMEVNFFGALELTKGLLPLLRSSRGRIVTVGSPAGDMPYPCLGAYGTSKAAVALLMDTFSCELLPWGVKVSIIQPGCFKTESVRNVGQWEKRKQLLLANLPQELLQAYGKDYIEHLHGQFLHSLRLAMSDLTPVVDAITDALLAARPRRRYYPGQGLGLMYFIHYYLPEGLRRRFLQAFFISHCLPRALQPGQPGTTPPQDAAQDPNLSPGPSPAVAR
Procedure: The resulting solution with a final volume of 100 µL was incubated for 2.5 h at 37 °C. […] The level of unreacted cortisol was measured by a commercially available ELISA kit.

[4] = target: T2, 11β-HSD1 (Homo sapiens, UniProt P28845); assay: Inhibition of 11β-HSD1 (cortisone to cortisol, human liver microsomes, cortisol ELISA); assay type: biochemical; details: for inhibition at 10 µM: 2.5 h, 37 °C
T2 construct: Human liver microsomes were used as a source of 11β-HSD1 enzyme; tissue XenoTech Lot No. 1410013; host or cells: pooled human liver microsomes, mixed gender
Method in brief: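 Human liver microsomal conversion of cortisone to cortisol, incubated 2.5 h at 37 °C and stopped with 18β-glycyrrhetinic acid. Cortisol was quantified by ELISA against inhibitor-free controls.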

[5] = test system: human breast carcinoma (MDA-MB-231); assay: MTS metabolic activity assay, MDA-MB-231 cells; assay type: cell-based; details: 72 h; for viability at 10 µM / viability at 20 µM / viability at 50 µM / viability at 100 µM / viability at 200 µM / viability at 300 µM / viability at 500 µM: Homo sapiens, read-out: Cell metabolic activity (MTS), % of untreated control; for viability at 10 µM: MDA-MB-231, 10 µM; for viability at 20 µM: MDA-MB-231, 20 µM; for viability at 50 µM: MDA-MB-231, 50 µM; for viability at 100 µM: MDA-MB-231, 100 µM; for viability at 200 µM: MDA-MB-231, 200 µM; for viability at 300 µM: MDA-MB-231, 300 µM; for viability at 500 µM: MDA-MB-231, 500 µM
Method in brief: as §1

[6] = test system: glioma (U-118 MG); assay: MTS metabolic activity assay, U-118 MG cells; assay type: cell-based; details: 72 h; for viability at 10 µM / viability at 20 µM / viability at 50 µM / viability at 100 µM / viability at 200 µM / viability at 300 µM / viability at 500 µM: Homo sapiens, U-118-MG, U118-MG, read-out: Cell metabolic activity (MTS), % of untreated control
Method in brief: as §1

[7] = test system: BJ cells; assay: MTS metabolic activity assay, BJ cells; assay type: cell-based; details: Homo sapiens, 72 h, read-out: Cell metabolic activity (MTS), % of untreated control
Method in brief: as §1

[8] = test system: human pancreatic carcinoma (PANC-1); assay: MTS metabolic activity assay, PANC-1 cells; assay type: cell-based; details: for viability at 10 µM / viability at 20 µM / viability at 50 µM / viability at 100 µM / viability at 200 µM / viability at 300 µM / viability at 500 µM: Homo sapiens, 72 h, read-out: Cell metabolic activity (MTS), % of untreated control; for viability at 10 µM: PANC-1, 10 µM; for viability at 20 µM: PANC-1, 20 µM; for viability at 50 µM: PANC-1, 50 µM; for viability at 100 µM: PANC-1, 100 µM; for viability at 200 µM: PANC-1, 200 µM; for viability at 300 µM: PANC-1, 300 µM; for viability at 500 µM: PANC-1, 500 µM; for highest increase in proliferation (cell metabolic activity): PANC-1, 72 h, range given for the named substances together
Method in brief: as §1

T2 sequence (P28845 whole entry): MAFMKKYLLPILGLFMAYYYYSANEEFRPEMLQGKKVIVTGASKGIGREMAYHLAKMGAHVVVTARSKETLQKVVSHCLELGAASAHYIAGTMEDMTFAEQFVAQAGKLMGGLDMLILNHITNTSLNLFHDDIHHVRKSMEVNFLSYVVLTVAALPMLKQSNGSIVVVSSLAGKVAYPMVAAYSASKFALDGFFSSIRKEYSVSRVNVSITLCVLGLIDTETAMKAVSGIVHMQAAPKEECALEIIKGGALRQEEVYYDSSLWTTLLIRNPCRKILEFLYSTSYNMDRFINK

O=C1N=C(NC2CCCC2)SC1c1ccccc1 (stereo not shown) [Compound 3f, 2-(cyclopentylamino)-5-phenylthiazol-4(5H)-one]
viability at 10 µM [1]: 96.1%
viability at 20 µM [1]: 98.2%
viability at 50 µM [1]: 99.7%
viability at 100 µM [1]: 100%
viability at 200 µM [1]: 93.8%
viability at 300 µM [1]: 73.2%
viability at 500 µM [1]: 50%
cell viability, decreases to [1]: 20–65%
viability at 10 µM [2]: 91.3%
viability at 20 µM [2]: 90.4%
viability at 50 µM [2]: 93.7%
viability at 100 µM [2]: 87.4%
viability at 200 µM [2]: 89.7%
viability at 300 µM [2]: 87.1%
viability at 500 µM [2]: 75.2%
inhibition at 10 µM [3]: 36.5 ± 3.07%
IC50 [4]: 1100 ± 80 nM
inhibition at 10 µM [4]: 64.3 ± 5.07%
viability at 10 µM [5]: 96.2%
viability at 20 µM [5]: 100%
viability at 50 µM [5]: 95.3%
viability at 100 µM [5]: 95.9%
viability at 200 µM [5]: 87.8%
viability at 300 µM [5]: 79.1%
viability at 500 µM [5]: 78.2%
viability at 10 µM [6]: 116%
viability at 20 µM [6]: 114%
viability at 50 µM [6]: 114%
viability at 100 µM [6]: 115%
viability at 200 µM [6]: 110%
viability at 300 µM [6]: 106%
viability at 500 µM [6]: 86.8%
highest increase in proliferation (cell metabolic activity) ([6]; U-118 MG, range given for the named substances together): 115 to 144%
viability at 10 µM [7]: 107%
viability at 20 µM [7]: 102%
viability at 50 µM [7]: 102%
viability at 100 µM [7]: 106%
viability at 200 µM [7]: 105%
viability at 300 µM [7]: 106%
viability at 500 µM [7]: 96.8%
viability at 10 µM [8]: 110%
viability at 20 µM [8]: 102%
viability at 50 µM [8]: 117%
viability at 100 µM [8]: 117%
viability at 200 µM [8]: 137%
viability at 300 µM [8]: 141%
viability at 500 µM [8]: 141%
highest increase in proliferation (cell metabolic activity) [8]: 115 to 144%

O=C1N=C(NC2CCCC2)SC1c1ccc(Br)cc1 (stereo not shown) [Compound 3g, 2-(cyclopentylamino)-5-(4-bromophenyl)thiazol-4(5H)-one]
viability at 10 µM [1]: 95.4%
viability at 20 µM [1]: 97.5%
viability at 50 µM [1]: 98.3%
viability at 100 µM [1]: 93.1%
viability at 200 µM [1]: 71.5%
viability at 300 µM [1]: 29.7%
viability at 500 µM [1]: 25.2%
cell viability, decreases to [1]: 20–65%
cell viability, decreases to ([2]; Caco-2, higher concentrations, range given for the most effective substances together): 20–65%
viability at 10 µM [2]: 91.9%
viability at 20 µM [2]: 88.8%
viability at 50 µM [2]: 87.3%
viability at 100 µM [2]: 80.7%
viability at 200 µM [2]: 56.3%
viability at 300 µM [2]: 30.1%
viability at 500 µM [2]: 30.9%
inhibition at 10 µM [3]: 38.6 ± 1.39%
IC50 [4]: 180 ± 30 nM
inhibition at 10 µM [4]: 87 ± 2.17%
viability at 10 µM [5]: 92.9%
viability at 20 µM [5]: 93.6%
viability at 50 µM [5]: 84.6%
viability at 100 µM [5]: 82%
viability at 200 µM [5]: 61.4%
viability at 300 µM [5]: 43.9%
viability at 500 µM [5]: 38%
cell viability, decreases to ([5]; MDA-MB-231, higher concentrations, range given for the most effective substances together): 20–65%
viability at 10 µM [6]: 114%
viability at 20 µM [6]: 110%
viability at 50 µM [6]: 105%
viability at 100 µM [6]: 104%
viability at 200 µM [6]: 87.3%
viability at 300 µM [6]: 40.6%
viability at 500 µM [6]: 32.3%
viability at 10 µM [7]: 99.7%
viability at 20 µM [7]: 97.8%
viability at 50 µM [7]: 90.8%
viability at 100 µM [7]: 88.1%
viability at 200 µM [7]: 84.2%
viability at 300 µM [7]: 57.3%
viability at 500 µM [7]: 55.4%
viability at 10 µM [8]: 116%
viability at 20 µM [8]: 122%
viability at 50 µM [8]: 145%
viability at 100 µM [8]: 139%
viability at 200 µM [8]: 94.1%
viability at 300 µM [8]: 57.9%
viability at 500 µM [8]: 57.2%
highest increase in proliferation (cell metabolic activity) [8]: 115 to 144%

— publication PMC10139140, “Synthesis of Novel 2-(Cyclopentylamino)thiazol-4(5H)-one Derivatives with Potential Anticancer, Antioxidant, and 11β-HSD Inhibitory Activities” (International Journal of Molecular Sciences, 2023)
